One data set deals with Bacillus subtilis. The experiment in a line: Antibacterial activity against Bacillus subtilis 168 assessed as inhibition of exponential phase of bacterial growth at 200 uM measured every 10 mins for 16 hrs by FLUOstar Optima plate reader analysis relative to control. Format: functional. Conditions: read-out: GI.
A short description of data set [1]: Solubility of compound in Luria-Bertani medium at 200 uM. Format: physicochemical.
A further data set concerns BL21-DE3. The experiment in a line: Inhibition of Bacillus subtilis C-terminal GST-tagged RNAP beta'-CH expressed in Escherichia coli BL21 (DE3) cells binding interaction with Escherichia coli sigma-70/Bacillus subtilis full length SigmaA2.2 expressed in Escherichia coli C41 (DE3) cells using TMB as substrate at 15 uM preincubated for 1 hr followed by substrate addition by ELISA relative to control.

The subject of the next data set is Escherichia coli. The experiment in a line: Antibacterial activity against Escherichia coli DH5[alpha] assessed as inhibition of exponential phase of bacterial growth at 200 uM measured every 10 mins for 16 hrs by FLUOstar Optima plate reader analysis relative to control. The class given is functional. Conditions: read-out: GI.

In general, inhibition refers to the percentage by which the read-out fell short of the control. The low end stands for a response near the control, the high end for a response far below the control. `COc1cc(OC)c2c(-c3ccc(Cl)cc3)c[nH]c2c1C(=O)NNC(=O)c1ccncc1Br`: the values for the inhibition of growth at 200 µM with Bacillus subtilis and in the data set with Escherichia coli were 74% and 47%, respectively. For the same compound, the solubility result in data set [1] was “soluble”. Besides, the inhibition in the data set with BL21-DE3 is 11%.

For the origin of these results see ChEMBL document CHEMBL3758170, “From indole to pyrrole, furan, thiophene and pyridine: Search for novel small molecule inhibitors of bacterial transcription initiation complex formation” (Bioorg Med Chem, 2016).
